Measured values from patent US20260021079A1, “NOX INHIBITORS FOR USE IN THE TREATMENT OF ALPORT SYNDROME” (CALLIDITAS THERAPEUTICS SUISSE SA, priority 2022, published 2026).

Columns and labels:
Format in all cases: in vivo
[1] = tested on: homozygous Col4a3 ko/ko mice; assay: Quantitative detection of mouse Cystatin C in plasma (ELISA), Col4a3 Alport mouse model; conditions: end of study (4 weeks of treatment); first experiment
Description: (§1) Mice homozygous for the Col4a3 ko/ko targeted mutation are a model for autosomal-recessive Alport syndrome (Cosgrove et al. Kidney Int. 2007, 71(7), p. 615-618). Animals bred on a 129/SvJ background develop glomerulonephritis and die at about 8.5 weeks of age (Jackson Laboratory strain: #002908). Gross et al. Kidney Int. 2003, 63(2), p. 438-446) reported a mean survival of 10 weeks. Since homozygous Col4a3 ko/ko mice reflect key features of Alport syndrome, this mouse model is useful to test potential drug candidates. A number of 40 homozygous Col4a3 ko/ko mice, allocated to 4 groups (vehicle, setanaxib, Ramipril, and setanaxib+Ramipril combination) with n=10 animals each, were used for the study. Starting at an age of 4 weeks, animals were treated with vehicle and/or compound daily per oral gavage for 4 weeks. The reference compound Ramipril was administered via drinking water, prepared on a weekly basis, but changed at the latest after 4 days. Additionally, one wild-type control group (Col4A3+/+) without any treatment was enclosed in the study with n=6 animals. At study end the animals were euthanized by i.p. injection of pentobarbital and terminal blood was collected by heart puncture in EDTA coated tubes. […] Cystatin C plasma levels of all animals at the end of the study were analyzed. […]

[2] = tested on: homozygous Col4a3 ko/ko mice; assay: Albumin levels in urine (Albumin Mouse ELISA) in Col4a3 Alport mouse model; conditions: setanaxib 60 mg/kg daily oral gavage, Ramipril 10 mg/kg via drinking water; for Albumin levels in urine vs vehicle: age 6 weeks (2 weeks of treatment)
Description: Mice homozygous for the Col4a3 ko/ko targeted mutation are a model for autosomal-recessive Alport syndrome (Cosgrove et al. Kidney Int. 2007, 71(7), p. 615-618). Animals bred on a 129/SvJ background develop glomerulonephritis and die at about 8.5 weeks of age (Jackson Laboratory strain: #002908). Gross et al. Kidney Int. 2003, 63(2), p. 438-446) reported a mean survival of 10 weeks. Since homozygous Col4a3 ko/ko mice reflect key features of Alport syndrome, this mouse model is useful to test potential drug candidates. A number of 40 homozygous Col4a3 ko/ko mice, allocated to 4 groups (vehicle, setanaxib, Ramipril, and setanaxib+Ramipril combination) with n=10 animals each, were used for the study. Starting at an age of 4 weeks, animals were treated with vehicle and/or compound daily per oral gavage for 4 weeks. The reference compound Ramipril was administered via drinking water, prepared on a weekly basis, but changed at the latest after 4 days. Additionally, one wild-type control group (Col4A3+/+) without any treatment was enclosed in the study with n=6 animals. […] Albumin and Creatinine levels were evaluated by ELISA in urine samples of 8 animals per treatment group. Treatment 40 homozygous Col4a3 ko/ko mice, allocated to 4 groups with n=10 animals each, were used for this study. Animals were treated with vehicle or compound daily per oral gavage for 4 weeks starting at an age of 4 weeks. The reference compound Ramipril was administered via drinking water, prepared on a weekly basis, but changed latest after 4 days. Additionally, one wild-type control group without any treatment was enclosed in the study with n=6 animals. The treatment groups are outlined in the table below: […] In case no urine was produced during the fixation process, massage of the abdomen was allowed. Urine was collected in Eppendorf Tubes, spun at 800×g at room temperature for 10 minutes and supernatant was transferred into a fresh tube and frozen at -20° C. until use. Creatinine and Albumin levels in urine supernatants, collected from 8 animals each group […] timepoints, at baseline, 6 and 8 weeks of age (n=96), were analyzed. Albumin levels in urine supernatants, collected from each animal per group at 3 time points (total n=96) were analyzed using an Albumin Mouse ELISA Kit (ab108792; Abcam) according to manufacturer protocol. Briefly, urine samples were centrifuged at 800×g for 10 minutes and diluted into Diluent N. 50 μL of albumin standard or sample was added per well and incubated for 2 hours. After a washing step, 50 μL of biotinylated albumin antibody was added to each well and incubated for 1 hour. […] Albumin levels were determined by reading the absorbance at 450 nm immediately after adding the stop solution.

[3] = tested on: homozygous Col4a3 ko/ko mice; assay: Blood Urea Nitrogen (BUN) colorimetric detection in plasma, Col4a3 Alport mouse model; conditions: end of study (4 weeks of treatment); first experiment
Description: as §1, with “BUN” for “Cystatin C”

[4] = tested on: homozygous Col4a3 ko/ko mice; assay: Albumin/creatinine ratio in urine in Col4a3 Alport mouse model; conditions: Ramipril 10 mg/kg
Description: Mice homozygous for the Col4a3 ko/ko targeted mutation are a model for autosomal-recessive Alport syndrome (Cosgrove et al. Kidney Int. 2007, 71(7), p. 615-618). Animals bred on a 129/SvJ background develop glomerulonephritis and die at about 8.5 weeks of age (Jackson Laboratory strain: #002908). Gross et al. Kidney Int. 2003, 63(2), p. 438-446) reported a mean survival of 10 weeks. Since homozygous Col4a3 ko/ko mice reflect key features of Alport syndrome, this mouse model is useful to test potential drug candidates. A number of 40 homozygous Col4a3 ko/ko mice, allocated to 4 groups (vehicle, setanaxib, Ramipril, and setanaxib+Ramipril combination) with n=10 animals each, were used for the study. Starting at an age of 4 weeks, animals were treated with vehicle and/or compound daily per oral gavage for 4 weeks. The reference compound Ramipril was administered via drinking water, prepared on a weekly basis, but changed at the latest after 4 days. Additionally, one wild-type control group (Col4A3+/+) without any treatment was enclosed in the study with n=6 animals. […] Albumin and Creatinine levels were evaluated by ELISA in urine samples of 8 animals per treatment group. Treatment 40 homozygous Col4a3 ko/ko mice, allocated to 4 groups with n=10 animals each, were used for this study. Animals were treated with vehicle or compound daily per oral gavage for 4 weeks starting at an age of 4 weeks. The reference compound Ramipril was administered via drinking water, prepared on a weekly basis, but changed latest after 4 days. Additionally, one wild-type control group without any treatment was enclosed in the study with n=6 animals. The treatment groups are outlined in the table below: […] In case no urine was produced during the fixation process, massage of the abdomen was allowed. Urine was collected in Eppendorf Tubes, spun at 800×g at room temperature for 10 minutes and supernatant was transferred into a fresh tube and frozen at -20° C. until use. Creatinine and Albumin levels in urine supernatants, collected from 8 animals each group […] timepoints, at baseline, 6 and 8 weeks of age (n=96), were analyzed. Creatinine levels in urine samples of all animals (n=8 per group, 4 groups, 3 time points, total n=96) were analyzed. For that purpose, an enzymatic assay from Diazyme® (DZ072B) was used. The analysis was performed according to manufacturer protocol with minor modifications introduced for use in 96 well plates and readout in standard plate photometer (Cytation 5, Biotek). Albumin levels in urine supernatants, collected from each animal per group at 3 time points (total n=96) were analyzed using an Albumin Mouse ELISA Kit (ab108792; Abcam) according to manufacturer protocol.

[5] = age 8 weeks (4 weeks of treatment), setanaxib 60 mg/kg

| SMILES | Cystatin C plasma levels vs vehicle [1] | Albumin levels in urine vs vehicle ([2]; first experiment) | Albumin levels in urine vs vehicle ([2]; second experiment) | BUN plasma levels vs vehicle [3] | Albumin to Creatinine ratio in urine vs vehicle ([4]; age 6 weeks, first experiment, setanaxib 60 mg/kg) | Albumin to Creatinine ratio in urine vs vehicle ([4]; age 6 weeks, second experiment) | Albumin to Creatinine ratio in urine vs vehicle [4, 5] | Albumin levels in urine vs vehicle ([2]; both experiments / experiment not specified) | Albumin levels in urine vs control (vehicle) ([2]; age 8 weeks (4 weeks of treatment)) | Albumin to Creatinine ratio in urine vs vehicle ([4]; age 6 weeks, both first and second experiment, setanaxib 60 mg/kg) |
| --- | --- | --- | --- | --- | --- | --- | --- | --- | --- | --- |
| CCOC(=O)[C@H](CCc1ccccc1)N[C@@H](C)C(=O)N1[C@H](C(=O)O)C[C@@H]2CCC[C@@H]21 [Ramipril, (2S,3aS,6aS)-1-[(2S)-2-[[(2S)-1-ethoxy-1-oxo-4-phenylbutan-2-yl]amino]propanoyl]-3,3a, 4,5,6,6a-hexahydro-2H-cyclopenta[b]pyrrole-2-carboxylic acid] | significant decrease | slightly reduced the amount of albumin in the urine | reduced to a greater extent | significant decrease | reduced the Albumin to Creatinine ratio, but without reaching significance | the reduction did reach significance | significantly decreased | – | – | – |
| CN(C)c1cccc(-c2c3c(=O)n(-c4ccccc4Cl)[nH]c3cc(=O)n2C)c1 [setanaxib, 2-(2-chlorophenyl)-4-[3-(dimethylamino)phenyl]-5-methyl-1H-pyrazolo[4,3-c]pyridine-3,6(2H,5H)-dione] | significant decrease | – | – | significant decrease | – | – | average decrease | trend towards increased Albumin levels | decrease in average Albumin levels | trend in both the first and second experiment towards an increase |
